Results reported in patent US10449230B2, “Polymyxin derived cell penetrating scaffolds” (The Regents of the University of California, priority 2016, dated 2019).
Numbered stars: 1 amine (or outer) side, 2 acyl side, 3 side chain; on linkers, the order of the positions; unused ones are H or OH. Bridge positions count the residues as written; N and C are the ends. Square brackets hold non-standard residues; d marks the D form. Peptide text beside a SMILES is read from it. * marks the point of attachment. Biotin = O=C1N[C@H]2[C@H](CS[C@H]2CCCCC(=O)*)N1; X1 = O=C(CCCc1cn(CCOCCOCCOCCN[*:1])nn1)[*:2]; Agb = N=C(N)NCC[C@H](N)C(=O)O; Dab = NCC[C@H](N)C(=O)O

How the values were obtained:
[1] = tested on: CHO-K1 cells; conditions: liposomes with 10 mol % carrier, 0.30, 0.50 or 0.70 μg/mL, 1 h at 37° C., FIG. 10
Description: A mixture (30 mg total) of DOPC, DOPE, and cholesterol (73:11:16) was dissolved in chloroform to a final volume of 1 mL and evaporated in a round flask and further dried under high vacuum overnight to form a thin lipid layer. The resulting film was hydrated for 15 min at 37° C. with 1 mL of PBS containing 100 μM Cy5. The mixture was sonicated for 30 s, subjected to six freeze/thaw cycles using a dry ice/acetone bath and a water bath at 37° C. Lastly, the suspension was extruded 17 times through a polycarbonate membrane (pore size 100 nm) at room temperature. Non-encapsulated dye was removed by gravitational gel filtration (Sephadex G-50). Lipid concentration was determined adapting the Stewart method. […] Unincorporated PMB or GPMB was removed via centrifuge gel filtration (Sephadex G-50) (see, e.g., D. W. Fry, J. C. White and I. D. Goldman, Anal. Biochem., 1978, 90, 809-815).
To examine the significance of the cyclic peptide as a delivery module, rather than the lipophilic tail, and the versatility of PMB and GPMB as transporters, liposomes containing the fluorescent Cy5 dye were mixed with 10 mol % PMB or GPMB. Uptake was evaluated using flow cytometry and the size and zeta potential of the liposomes were measured using dynamic light scattering (DLS) and are shown in Table 1 below. […]

[2] = tested on: CHO-K1 cells; assay: Cellular uptake of transporter-ST-PE-Cy5 conjugates, flow cytometry (MFI); type: cell-based, Chinese hamster; conditions: for Uptake of ST-PE-Cy5 incubated with transporter lacking the biotin moiety: CHO-K1, 37° C., 1 h, FIG. 4
Description: The polymyxin derivatives (2.5 μM in PBS) were incubated with ST-PE-Cy5 (0.5 μM in PBS) for 20 min at ambient temperature then diluted with F-12 cell culture medium to give final conjugate solutions.
Cells were plated onto 24-well plates (100 000 cells/well) and grown for 24 h to about 80% confluence. Cells were washed with PBS and incubated with 300 μL of the corresponding conjugate for 1 h at 37° C. under an atmosphere of 5% CO2. Cells were washed twice with PBS, detached with 50 μL of trypsin-EDTA for uptake studies or 100 μL Versene (EDTA) for binding studies, diluted with PBS containing 0.1% BSA, and analyzed by FACS. Cellular uptake was quantified by the mean fluorescence intensity; raw data was interpreted by using FlowJo v8.8.6.
Wild type CHO-K1 cells were incubated with the carrier-ST-PE-Cy5 conjugate for 1 h at 37° C., detached with trypsin/EDTA, and analyzed by flow cytometry (see, e.g., H. O'Dowd, B. Kim, P. Margolis, W. Wang, C. Wu, S. L. Lopez and J. Blais, Tetrahedron Lett., 2007, 48, 2003-2005). […] Cellular uptake of GPMB and PMB conjugated to ST-PE-Cy5 was measured in CHO-K1, HEK-293, and HEP-3B cells. The cells were incubated with conjugate (5 nM) at 37° C. for 1 h. Mean fluorescence intensity was measured by flow cytometry. The background signal from untreated cells was subtracted (FIG. 2).
The mixtures were then added to CHO-K1 cells and incubated at 37° C. for 1 h. Mean fluorescence intensity was measured by flow cytometry and the background signal from untreated cells was subtracted.

[3] = tested on: HEK-293 cells; conditions: HEK-293, 72 h, concentrations as high as 0.5 μM, FIG. 3B
Description: (§1) Cell titer blue was added and incubated an additional 4 hours. Cell viability was calculated by measuring the fluorescence intensity at 560/590.

[4] = tested on: CHO-K1 cells; conditions: CHO-K1, 72 h, concentrations as high as 0.5 μM, FIG. 3A
Description: as §1

[5] = tested on: CHO-K1 cells; assay: Cytoplasmic delivery of streptavidin-saporin, CellTiter-Blue viability; type: cell-based, Chinese hamster; conditions: CHO-K1, four days at 37° C., FIG. 8
Description: The biotinylated transporters were incubated with ST-Sap in a 5:1 molar ratio for 20 min at ambient temperature then diluted with F-12 cell culture medium to give final conjugate solutions. CHO-K1 and pgsA cells were incubated with 100 μL of the corresponding conjugate for 4 days at 37° C. under an atmosphere of 5% CO2. CellTiter-Blue (20 μL) was added to the medium and incubated for an additional 4 h to measure viability.
The ability of bPMB and bGPMB to deliver cargo to the cytosol was evaluated by conjugating the transporter to streptavidin-saporin (ST-SAP) and incubating the conjugate with CHO-K1 or pgsA cells at various concentrations. CHO-K1 cells were incubated with transporter-streptavidin-saporin conjugates at 37° C.
Saporin (no streptavidin) was incubated with bPMB or bGPMB for 20 min then diluted to final saporin concentrations and added to CHO-K1 cells. After four days, the number of viable cells was determined using CellTiter-Blue assay and the fluorescence intensity at was measured at 560/590 (FIG. 9A). pgsA cells were incubated with transporter-streptavidin-saporin conjugates at 37° C. After four days, the number of viable cells was determined using CellTiter-Blue and fluorescence intensity was measured at 560/590 (FIG. 9B).

Compound	Delivery of cargo containing liposomes into wild-type CHO cells [1]	Uptake of ST-PE-Cy5 incubated with transporter lacking the biotin moiety [2]	Cytotoxicity (Cell-Titer Blue) [3]	Cytotoxicity (Cell-Titer Blue) [4]	also measured
Polymyxin B [PMB, reference compound]	enhance delivery	No enhanced uptake			
CC(C)C[C@@H]1NC(=O)[C@@H](Cc2ccccc2)NC(=O)[C@H](CCN)NC(=O)[C@@H](NC(=O)[C@H](CCN)NC(=O)[C@@H](NC(=O)[C@H](CCN)NC(=O)CCCc2cn(CCOCCOCCOCCNC(=O)CCCC[C@@H]3SC[C@@H]4NC(=O)N[C@@H]43)nn2)[C@@H](C)O)CCNC(=O)[C@H]([C@@H](C)O)NC(=O)[C@H](CCN)NC(=O)[C@H](CCN)NC1=O [bPMB, biotinylated polymyxin B] (Biotin-[X1][Dab]T[Dab][Dab][Dab][dF]L[Dab][Dab]T; lactam 5-C)			no cytotoxicity	no cytotoxicity	
guanidinylated polymyxin B [GPMB]	enhance delivery	No enhanced uptake			
Octaarginine [bArg8]					LD50 of transporter-streptavidin-saporin conjugate [5]: 3.1 nM; Cellular uptake of ST-PE-Cy5 conjugate compared with bPMB and bGPMB ([2]; CHO-K1, 1 h at 37° C., MFI, FIG. 1A): approximately three-fold higher uptake
CC(C)C[C@@H]1NC(=O)[C@@H](Cc2ccccc2)NC(=O)[C@H](CCNC(=N)N)NC(=O)[C@@H](NC(=O)[C@H](CCNC(=N)N)NC(=O)[C@@H](NC(=O)[C@H](CCNC(=N)N)NC(=O)CCCc2cn(CCOCCOCCOCCNC(=O)CCCC[C@@H]3SC[C@@H]4NC(=O)N[C@@H]43)nn2)[C@@H](C)O)CCNC(=O)[C@H]([C@@H](C)O)NC(=O)[C@H](CCNC(=N)N)NC(=O)[C@H](CCNC(=N)N)NC1=O [bGPMB, biotinylated guanidinylated polymyxin B] (Biotin-[X1][Agb]T[Agb][Dab][Agb][dF]L[Agb][Agb]T; lactam 5-C)			no cytotoxicity	no cytotoxicity	
